Patent US11051515B2, “3-acyl-benzamides and their use as herbicides” (Bayer Aktiengesellschaft, priority 2017, dated 2021)

What was measured:
MATIN [1] = assay: Post-emergence action against MATIN; assay type: in vivo, Matricaria inodora; settings: post-emergence, dosage 80 g/ha, visual assessment about 3 weeks after treatment vs untreated controls
In short: (§1)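 Post-emergence foliar spray on greenhouse plants at the one-leaf stage, using wettable-powder or emulsion-concentrate formulations in water (600 to […], plus 0.2% wetting agent). Damage scored by eye roughly 3 weeks later against untreated plants: 0% = like control, 100% = dead.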

SETVI [2] = assay: Pre-emergence action against SETVI; assay type: in vivo, Setaria viridis; settings: pre-emergence, dosage 320 g/ha, scored visually after 3 weeks vs untreated controls
In short: (§2)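 Seeds sown in sandy loam in wood-fiber pots and covered with soil. Greenhouse growth; visual damage scored after 3 weeks versus untreated controls (100% = dead, 0% = like control).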

STEME [3] = assay: Post-emergence action against STEME; assay type: in vivo, Stellaria media; settings: post-emergence, dosage 80 g/ha
In short: as §1

ECHCG [4] = assay: Post-emergence action against ECHCG; assay type: in vivo, Echinochloa crus-galli; settings: post-emergence, dosage 80 g/ha, visual assessment about 3 weeks after treatment vs untreated controls
In short: as §1

SETVI [5] = assay: Post-emergence action against SETVI; assay type: in vivo, Setaria viridis; settings: post-emergence, dosage 80 g/ha, visual assessment about 3 weeks after treatment vs untreated controls
In short: as §1

POLCO [6] = assay: Pre-emergence action against POLCO; assay type: in vivo, Polygonum convolvulus; settings: Dosage 320 g/ha, pre-emergence
In short: as §2

VIOTR [7] = assay: Post-emergence action against VIOTR; assay type: in vivo, Viola tricolor; settings: post-emergence, dosage 80 g/ha
In short: as §1

ABUTH [8] = assay: Post-emergence action against ABUTH; assay type: in vivo, Abutilon theophrasti; settings: post-emergence, dosage 80 g/ha, visual assessment about 3 weeks after treatment vs untreated controls
In short: as §1

VERPE [9] = assay: Post-emergence action against VERPE; assay type: in vivo, Veronica persica; settings: dosage 80 g/ha
In short: as §1

VERPE [10] = assay: Pre-emergence action against VERPE; assay type: in vivo, Veronica persica; settings: Dosage 320 g/ha, pre-emergence
In short: as §2

STEME [11] = assay: Pre-emergence action against STEME; assay type: in vivo, Stellaria media; settings: Dosage 320 g/ha, pre-emergence
In short: as §2

CYPES [12] = assay: Post-emergence action against CYPES; assay type: in vivo, Cyperus esculentus; settings: post-emergence, dosage 80 g/ha, visual assessment about 3 weeks after treatment vs untreated controls
In short: as §1

ALOMY [13] = assay: Pre-emergence action against ALOMY; assay type: in vivo, Alopecurus myosuroides; settings: dosage 320 g/ha; pre-emergence; scored visually after 3 weeks vs untreated controls; 100% = plants have died, 0% = like control plants
In short: as §2

AMARE [14] = assay: Pre-emergence action against AMARE; assay type: in vivo, Amaranthus retroflexus; settings: pre-emergence, dosage 320 g/ha, scored visually after 3 weeks vs untreated controls
In short: as §2

AMARE [15] = assay: Post-emergence action against AMARE; assay type: in vivo, Amaranthus retroflexus; settings: post-emergence, dosage 80 g/ha, visual assessment about 3 weeks after treatment vs untreated controls
In short: as §1

PHBPU = assay: Post-emergence action against PHBPU; assay type: in vivo, Pharbitis purpurea; settings: post-emergence, dosage 80 g/ha
In short: as §1

ECHCG [16] = assay: Pre-emergence action against ECHCG; assay type: in vivo, Echinochloa crus-galli; settings: pre-emergence, dosage 320 g/ha, scored visually after 3 weeks vs untreated controls
In short: as §2

ALOMY [17] = assay: Post-emergence action against ALOMY; assay type: in vivo, Alopecurus myosuroides; settings: Dosage 80 g/ha, post-emergence
Description: (§3) Seeds of monocotyledonous and dicotyledonous weed and crop plants are laid out in sandy loam soil in wood-fiber pots, covered with soil and cultivated in a greenhouse under good growth conditions. 2 to 3 weeks after sowing, the test plants are treated at the one-leaf stage. The compounds of the invention, formulated in the form of wettable powders (WP) or as emulsion concentrates (EC), are then sprayed onto the green parts of the plants in the form of an aqueous suspension or emulsion at a water application rate equating to […], with addition of 0.2% wetting agent. After the test plants have been left to stand in the greenhouse under optimal growth conditions for about 3 weeks, the action of the preparations is assessed visually in comparison to untreated controls (herbicidal action in percent (%): 100% activity=the plants have died, 0% activity=like control plants). […] At the same time, inventive compounds leave Gramineae crops such as barley, wheat, rye, millet/Sorghum, corn or rice virtually undamaged when applied post-emergence, even at high active ingredient dosages. In addition, some substances are also harmless to dicotyledonous crops such as soya, cotton, oilseed rape, sugar beet or potatoes. Some of the compounds according to the invention have high selectivity and are therefore suitable for controlling unwanted vegetation in agricultural crops by the post-emergence method. The data of Tables B18 to B34 below illustrate, in an exemplary manner, the […] herbicidal action of the compounds according to the invention, the herbicidal activity being stated in percent.

MATIN [18] = assay: Pre-emergence action against MATIN; assay type: in vivo, Matricaria inodora; settings: Dosage 320 g/ha, pre-emergence
In short: as §2

ABUTH [19] = assay: Pre-emergence action against ABUTH; assay type: in vivo, Abutilon theophrasti; settings: pre-emergence, dosage 320 g/ha, scored visually after 3 weeks vs untreated controls
In short: as §2

VIOTR [20] = assay: Pre-emergence action against VIOTR; assay type: in vivo, Viola tricolor; settings: Dosage 320 g/ha, pre-emergence
In short: as §2

AVEFA [21] = assay: Pre-emergence action against AVEFA; assay type: in vivo, Avena fatua; settings: dosage 320 g/ha, scored visually after 3 weeks vs untreated controls
In short: as §2

AVEFA [22] = assay: Post-emergence action against AVEFA; assay type: in vivo, Avena fatua; settings: post-emergence, dosage 80 g/ha, visual assessment about 3 weeks after treatment vs untreated controls
Description: as §3

POLCO [23] = assay: Post-emergence action against POLCO; assay type: in vivo, Polygonum convolvulus; settings: post-emergence, dosage 80 g/ha
In short: as §1

CYPES [24] = assay: Pre-emergence action against CYPES; assay type: in vivo, Cyperus esculentus; settings: pre-emergence, dosage 320 g/ha, scored visually after 3 weeks vs untreated controls
In short: as §2

| Compound | SETVI (Table B8, pre-emergence herbicidal activity) (SETVI [2]) [%] | Post-emergence action against STEME (STEME [3]) | Post-emergence action against ECHCG (herbicidal action in percent) (ECHCG [4]) [%] | Post-emergence action against SETVI (herbicidal action in percent) (SETVI [5]) [%] | Pre-emergence action against POLCO (POLCO [6]) [%] | Post-emergence action against VIOTR (VIOTR [7]) | Post-emergence action against ABUTH (herbicidal action in percent) (ABUTH [8]) [%] | Pre-emergence action against VERPE (VERPE [10]) [%] | Pre-emergence action against STEME (STEME [11]) [%] | Pre-emergence action against AMARE (herbicidal activity) (AMARE [14]) [%] | Post-emergence action against AMARE (herbicidal action in percent) (AMARE [15]) [%] | Post-emergence action against PHBPU (PHBPU) | Pre-emergence action against ECHCG (herbicidal activity) (ECHCG [16]) [%] | Post-emergence action against ALOMY (ALOMY [17]) [%] | Pre-emergence action against MATIN (MATIN [18]) [%] | Pre-emergence action against ABUTH (herbicidal activity) (ABUTH [19]) [%] | Pre-emergence action against VIOTR (VIOTR [20]) [%] | other results |
| --- | --- | --- | --- | --- | --- | --- | --- | --- | --- | --- | --- | --- | --- | --- | --- | --- | --- | --- |
| CCCn1nnnc1NC(=O)c1ccc(C(F)(F)F)c(C(=O)C2CC2)c1Cl [3-141] | 100 | 100 | 100 | 100 | 90 | 100 | 80 | 100 | 100 | 100 | 100 | 100 | 100 | 80 | 100 | 100 | 100 | Post-emergence action against MATIN (herbicidal action in percent) (MATIN [1]): 100%; Post-emergence action against VERPE (VERPE [9]): 100; Post-emergence action against CYPES (herbicidal action in percent) (CYPES [12]): 80%; Pre-emergence action against ALOMY (herbicidal activity in percent) (ALOMY [13]): 90%; Pre-emergence action against AVEFA (herbicidal activity) (AVEFA [21]): 80%; Post-emergence action against AVEFA (herbicidal action in percent) (AVEFA [22]): 100% |
| CCn1nnnc1NC(=O)c1ccc(C(F)(F)F)c(C(=O)CCl)c1Cl [2-145] | 100 | 100 | 100 | 100 | 90 | 100 | 100 | 100 | 100 | 100 | 100 | 100 | 90 | 80 | 100 | 100 | 100 | Post-emergence action against POLCO (POLCO [23]): 80; Pre-emergence action against CYPES (herbicidal activity) (CYPES [24]): 100% |
